Assay [1] concerns methicillin-resistant Staphylococcus aureus (MRSA) isolates. Briefly: MIC measured by agar dilution method (CLSI). It counts as cell-based. To be noted: for MIC: Staphylococcus aureus, MRSA. The procedure: (§1) Spontaneous mutation and minimal inhibit concentration (MIC) tested by agar dilution method, the above compounds are respectively prepared into a stock solution (100X) with a concentration 100 times the highest final concentration in corresponding solvents and used on the same day. Before use, I is further diluted with DMSO; and oxacillin, rifampicin and levofloxacin are further diluted with water.
(§2) Bacterial isolates: Staphylococcus aureus isolates are retrieved from the −80° C. storage room of Micromyx Culture Collection, thawed, plated onto Tryptic Soy Agar+5% sheep blood (Remel; Lenexa, Kans.), and then incubated aerobically at 35° C. overnight. S. aureus ATCC 29213 (MRSA; MMX 0100) was included during testing only for the purpose of quality control. Test Media: The isolates were tested in both the agar dilution MIC assay and the spontaneous mutation assay using Mueller-Hinton Agar (MHA; BD/BBL; Lot No. 6229829 & 4216798). Inocula of each isolate were suspended in cation-adjusted Mueller-Hinton Broth (CAMHB) (BD/BBL; Lot Nos. 5257869 & 6258541). Sodium chloride (Sigma-Aldrich; Lot No. SLBL0434V) was added to CAMHB at a final concentration of 2% when testing oxacillin. Dilutions of bacterial cell suspensions for the purpose of performing colony counts were also made in CAMHB.
(§3) MIC measured by agar dilution method: according to the recommendation from the Clinical and Laboratory Standards Institute (CLSI), the MIC value is measured by the agar dilution method. […] Each test agent was combined with molten MHA agar (50-55° C.) at a ratio of 0.2 mL of 100× test agent to 19.8 mL agar in a sterile tube, mixed gently, and then poured into a sterile petri plate (BD Falcon). Plates were allowed to solidify at room temperature. A 0.5 McFarland standard bacterial suspension was prepared, diluted 1:10 in CAMHB, and transferred to the wells of a stainless steel replicator block before stamping onto plates containing drug, resulting in 10^4 CFU/spot. After allowing the inoculum to dry on the surface of the agar, the plates were inverted, incubated aerobically at 35° C. for 20-24 hr, and inspected for growth.
(In agar dilution the substance is mixed into plates at graded concentrations.)

The subject of assay [2] is Staphylococcus aureus ATCC 29213. Kind of assay: MIC measured by agar dilution method, quality control strain. To be noted: strain 100, MSSA QC strain. It counts as cell-based. The procedure:
as §1, §2, §3
In parallel experiments, a standard bacterium suspension with a […] turbidity of 0.5 is prepared as a standard inoculum for agar dilution analysis (10^4 CFU/point). […] In this step, the broths and drugs used in the spontaneous mutation analysis are used to confirm that the concentration of the drug stock solution can inhibit the growth of the standard inoculum. The quality of the levofloxacin stock solution is controlled by a standard inoculum and levofloxacin of 8-0.008 μg/mL, and separate agar dilution analysis is performed. […]

For assay [3] the test system is unchanged. Kind of assay: MIC measured by fluid broth microdilution method (quality control). It counts as cell-based. As to conditions: ATCC29213. (Broth dilution looks for growth in wells or tubes with falling amounts of substance.)
Assay [4] has the same test system. To be noted: agar dilution; cited from earlier work.
Setting [5] is: strain 3085, LEV^S RIF^S, agar dilution.
[6] abbreviates: strain 3090, LEV^R RIF^S, agar dilution.
Setting [7] is: strain 3094, LEV^R RIF^S, agar dilution.
Setting [8] is: strain 3098, LEV^S RIF^S, agar dilution.
Setting [9] is: strain 3265, LEV^R RIF^S, agar dilution.
[10] abbreviates: strain 3266, LEVR RIFS, agar dilution.
The mark [11] stands for this setting: strain 3270, LEV^R RIF^S, agar dilution.
Setting [12] is: strain 3271, LEV^R RIF^S, agar dilution.
The mark [13] stands for this setting: strain 3277, LEV^S RIF^S, agar dilution.
The mark [14] stands for this setting: strain 3278, LEV^S RIF^S, agar dilution.
Setting [15] is: strain 6312, LEV^R RIF^S, agar dilution.
Setting [16] is: strain 6313, LEV^R RIF^S, agar dilution.
[17] abbreviates: strain 6315, LEV^R RIF^S, agar dilution.
[18] abbreviates: strain 6498, LEV^R RIF^S, agar dilution.
The mark [19] stands for this setting: strain 6501, LEV^R RIF^S, agar dilution.
[20] abbreviates: strain 6505, LEV^R RIF^S, agar dilution.
Setting [21] is: strain 7771, LEV^R RIF^S, agar dilution.
[22] abbreviates: strain 7772, LEV^S RIF^S, agar dilution.
[23] abbreviates: strain 7773, LEV^R RIF^S, agar dilution.
The mark [24] stands for this setting: strain 7774, LEV^R RIF^S, agar dilution.
Where [25] appears, read: strain 7775, LEV^R, agar dilution.

The values that follow come from patent US20220087990A1, “APPLICATION OF RIFAMYCIN-QUINOLIZIDONE CONJUGATE MOLECULE AND PHARMACEUTICALLY ACCEPTABLE SALT THEREOF” (priority 2019, published 2022).

Broadly, the MIC is the lowest concentration that inhibits growth of the organism.

In brackets after ≈: the same amount, converted by molar mass. Read-outs that look alike come from different tables or passages of the source. Bounds are passed on as bounds.

Regarding `C[C@H]1COc2c(N3CCN(C)CC3)c(F)cc3c(=O)c(C(=O)O)cn1c23` [Levofloxacin], the MIC in assay [1] (read-out: MIC over all strains under test) is 0.25 to 64 µg/mL (≈ 0.692 to 177 µM); in assay [1] (setting [5]) it was 0.25 µg/mL (≈ 0.692 µM); in assay [1] (setting [6]), 32 µg/mL (≈ 88.6 µM); in assay [1] (setting [7]) it was greater than 64 µg/mL; in assay [1] (setting [8]), 0.25 µg/mL (≈ 0.692 µM); in assay [1] (setting [9]), 64 µg/mL (≈ 177 µM). Further, the MIC is 64 µg/mL (≈ 177 µM) in assay [1] (setting [10]); 4 µg/mL (≈ 11.1 µM) in assay [1] (setting [11]); 4 µg/mL (≈ 11.1 µM) in assay [1] (setting [12]); 0.25 µg/mL (≈ 0.692 µM) in assay [1] (setting [13]); 0.25 µg/mL (≈ 0.692 µM) in assay [1] (setting [14]); 16 µg/mL (≈ 44.3 µM) in assay [1] (setting [15]). In addition, the MIC is 16 µg/mL (≈ 44.3 µM) in assay [1] (setting [16]); greater than 64 µg/mL in assay [1] (setting [17]); 8 µg/mL (≈ 22.1 µM) in assay [1] (setting [18]); 8 µg/mL (≈ 22.1 µM) in assay [1] (setting [19]); 4 µg/mL (≈ 11.1 µM) in assay [1] (setting [20]); greater than 64 µg/mL in assay [1] (setting [21]). Besides, the MIC in assay [1] (setting [22]) is 0.25 µg/mL (≈ 0.692 µM); in assay [1] (setting [23]) it was 8 µg/mL (≈ 22.1 µM); in assay [1] (setting [24]), greater than 64 µg/mL; in assay [1] (setting [25]), 16 µg/mL (≈ 44.3 µM); in assay [2], 0.25 µg/mL (≈ 0.692 µM); in assay [3] it was 0.25 µg/mL (≈ 0.692 µM).

For the molecule `Cc1onc(-c2ccccc2)c1C(=O)N[C@@H]1C(=O)N2[C@@H]1SC(C)(C)[C@@H]2C(=O)O` [Oxacillin], the “sensitivity of the strains (resistant / sensitive)” value in assay [1] is given as “resistant”. Besides, the MIC in assay [1] (setting [5]), in assay [1] (setting [6]), in assay [1] (setting [7]), in assay [1] (setting [8]), in assay [1] (setting [9]) and in assay [1] (setting [10]) was greater than 8 µg/mL throughout. Besides, the MIC in assay [1] (setting [11]), in assay [1] (setting [12]), in assay [1] (setting [13]), in assay [1] (setting [14]), in assay [1] (setting [15]) and in assay [1] (setting [16]) was greater than 8 µg/mL each time. For the same molecule, the MIC in assay [1] (setting [17]), in assay [1] (setting [18]), in assay [1] (setting [19]), in assay [1] (setting [20]), in assay [1] (setting [21]) and in assay [1] (setting [22]) was greater than 8 µg/mL in each case. For the same molecule, the MIC in assay [1] (setting [23]) was greater than 8 µg/mL; in assay [1] (setting [24]) it was greater than 8 µg/mL; in assay [1] (setting [25]) it was greater than 8 µg/mL; in assay [2], 0.25 µg/mL (≈ 0.623 µM). Moreover, the “MIC quality control range of CLSI” value in assay [4] is 0.12 to 0.5 µg/mL.
